Laboratory results: the supplement of paper PMC10307832

Key:
Assay in all cases: relative viability (nuclei count vs DMSO), 5 days (fraction); higher = more cells survive
[1] = compound: O=C(NC1CCNCC1)c1n[nH]cc1NC(=O)c1c(Cl)cccc1Cl [AT-7519] + O=C(CCCCCCC(=O)Nc1ccccc1)NO [Vorinostat] (partner 1 µM)
Method in brief: (§1)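 Lung cancer cell lines in 1536-well plates were dosed by pin tool the day after seeding, either with one drug alone or with a fixed anchor-drug dose plus five library-drug doses (not always all listed) in √10 steps. After 5 days, cells were fixed and their nuclei stained in one step (final 0.05% Triton X-100, 1% formaldehyde, 1 ug/ml Hoechst), then counted on 4× images. Relative viability is the nuclei count in treated wells divided by that in vehicle wells. Values are medians of duplicate plates.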

[2] = compound: O=C(NC1CCNCC1)c1n[nH]cc1NC(=O)c1c(Cl)cccc1Cl [AT-7519] + N=C(N)NC(=N)NCCc1ccccc1 [Phenformin] (partner 250 µM)
Method in brief: as §1

[3] = compound: C1=CC2=C(C=C(C(=C2N=C1)O)N=NC3=CC4=C(C=C3)C=C(C=C4)S(=O)(=O)O)S(=O)(=O)O + CC(=O)c1c(C)c2cnc(Nc3ccc(N4CCNCC4)cn3)nc2n(C2CCCC2)c1=O [Palbociclib] (partner 0.5 µM)
Method in brief: as §1

[4] = compound: O=C(NC1CCNCC1)c1n[nH]cc1NC(=O)c1c(Cl)cccc1Cl [AT-7519] + Nc1ncn([C@H]2C[C@H](O)[C@@H](CO)O2)c(=O)n1 [Decitabine] (partner 2 µM)
Method in brief: as §1

What does the source list for UMC-11?
relative viability ([1]; first compound 0.01 µM): 0.324; relative viability ([1]; first compound 0.03162 µM): 0.379; relative viability ([1]; first compound 0.3162 µM): 0.272; relative viability ([1]; first compound 1 µM): 0.205; relative viability ([2]; first compound 0.01 µM): 0.319; relative viability ([2]; first compound 0.03162 µM): 0.339; relative viability ([2]; first compound 0.3162 µM): 0.308; relative viability ([2]; first compound 1 µM): 0.237; relative viability ([3]; first compound 0.08 µM): 0.325; relative viability ([3]; first compound 0.253 µM): 0.329; relative viability ([3]; first compound 0.8 µM): 0.326; relative viability ([3]; first compound 2.53 µM): 0.339; relative viability ([3]; first compound 8 µM): 0.324; relative viability ([4]; first compound 0.01 µM): 0.675; relative viability ([4]; first compound 0.03162 µM): 0.551; relative viability ([4]; first compound 0.3162 µM): 0.514; relative viability ([4]; first compound 1 µM): 0.306
